Assay results as given in ChEMBL document CHEMBL1201862, “PubChem BioAssay data set” (2004).
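These data come from cells grown in 96-well plates and exposed to compound for 48 hours at five concentrations. GI50 marks 50% less growth.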 The source made the active and inactive calls. Rule as the data show it: active = GI50 up to about 1.1 µM and inactive = higher.

What was measured:
Assay in all cases: NCI anticancer screen, dose series, 48 h
[1] = tested on: SF-295
[2] = tested on: UACC-62
[3] = tested on: NCI-H522
[4] = tested on: Malme-3M
[5] = tested on: SNB-19
[6] = tested on: SNB-75
[7] = tested on: SF-268
[8] = tested on: SN12C
[9] = tested on: SF-539
[10] = tested on: SR
[11] = tested on: HOP-92
[12] = tested on: CAKI-1
[13] = tested on: HCT-15
[14] = tested on: TK-10
[15] = tested on: HCT-116
[16] = tested on: SK-OV-3
[17] = tested on: U-251
[18] = tested on: OVCAR-4
[19] = tested on: A498

SMILES: C=CC1=C(C)/C(=C/C2=NC(=C\c3[nH]c(CC4NC(=O)C(C)/C4=C\C)c(C)c3CCC(=O)O)/C(CC(=O)O)=C2C)NC1=O (centres undefined)
- GI50 [1]: > 100 µM (inactive)
- GI50 [2]: > 100 µM (inactive)
- GI50 [3]: > 100 µM (inactive)
- GI50 [4]: > 100 µM (inactive)
- GI50 [5]: > 100 µM (inactive)
- GI50 [6]: > 100 µM (inactive)
- GI50 [7]: > 100 µM (inactive)
- GI50 [8]: > 100 µM (inactive)
- GI50 [9]: > 100 µM (inactive)
- GI50 [10]: > 100 µM (inactive)
- GI50 [11]: 70 µM (inactive)
- GI50 [12]: > 100 µM (inactive)
- GI50 [13]: > 100 µM
- GI50 [14]: > 100 µM (inactive)
- GI50 [15]: > 100 µM (inactive)
- GI50 [16]: > 100 µM (inactive)
- GI50 [17]: > 100 µM (inactive)
- GI50 [18]: > 100 µM (inactive)

SMILES: Cc1ccc(NC(=O)/C(=N/NC(=O)C[N+](C)(C)C)c2nc3ccccc3nc2O)cc1
- GI50 [1]: > 100 µM (inactive)
- GI50 [2]: > 100 µM (inactive)
- GI50 [4]: > 100 µM (inactive)
- GI50 [5]: > 100 µM (inactive)
- GI50 [6]: > 100 µM (inactive)
- GI50 [19]: > 100 µM (inactive)
- GI50 [7]: > 100 µM (inactive)
- GI50 [8]: > 100 µM (inactive)
- GI50 [9]: > 100 µM (inactive)
- GI50 [10]: > 100 µM (inactive)
- GI50 [11]: > 100 µM (inactive)
- GI50 [12]: > 100 µM (inactive)
- GI50 [13]: 81.1 µM
- GI50 [14]: > 100 µM (inactive)
- GI50 [15]: > 100 µM (inactive)
- GI50 [16]: > 100 µM (inactive)
- GI50 [17]: 27.4 µM (inactive)
- GI50 [18]: > 100 µM (inactive)

SMILES: CC(=O)OC(C)(C)C1CCC(C)(C(O)COc2ccc(CCNC(=O)c3ccccc3)cc2)O1 (centres undefined)
- GI50 [1]: 37.1 µM (inactive)
- GI50 [2]: 30.8 µM (inactive)
- GI50 [3]: 51.2 µM (inactive)
- GI50 [4]: 63.5 µM (inactive)
- GI50 [5]: > 100 µM (inactive)
- GI50 [6]: 91.6 µM (inactive)
- GI50 [7]: > 100 µM (inactive)
- GI50 [8]: > 100 µM (inactive)
- GI50 [9]: 60.8 µM (inactive)
- GI50 [10]: 47.1 µM (inactive)
- GI50 [11]: > 100 µM (inactive)
- GI50 [12]: > 100 µM (inactive)
- GI50 [13]: 46 µM
- GI50 [14]: 63.8 µM (inactive)
- GI50 [15]: 28.8 µM (inactive)
- GI50 [16]: > 100 µM (inactive)
- GI50 [17]: 53.3 µM (inactive)
- GI50 [18]: 63.2 µM (inactive)

SMILES: CN(C)c1ccc(/C=N/C23CC4CC(CC(C4)C2)C3)cc1
- GI50 [1]: > 100 µM (inactive)
- GI50 [2]: > 100 µM (inactive)
- GI50 [3]: > 100 µM (inactive)
- GI50 [4]: > 100 µM (inactive)
- GI50 [5]: > 100 µM (inactive)
- GI50 [6]: > 10 µM (inactive)
- GI50 [19]: > 100 µM (inactive)
- GI50 [7]: > 100 µM (inactive)
- GI50 [8]: > 100 µM (inactive)
- GI50 [9]: > 100 µM (inactive)
- GI50 [10]: > 100 µM (inactive)
- GI50 [12]: > 100 µM (inactive)
- GI50 [13]: > 100 µM
- GI50 [14]: > 100 µM (inactive)
- GI50 [15]: > 100 µM (inactive)
- GI50 [16]: > 100 µM (inactive)
- GI50 [17]: > 100 µM (inactive)
- GI50 [18]: > 100 µM (inactive)

SMILES: CCC(=O)O[C@H]1CC[C@H]2[C@@H]3CCC4=C/C(=N/NC(=O)c5cccc6c(=O)c7ccccc7[nH]c56)CC[C@]4(C)[C@H]3CC[C@]12C
- GI50 [1]: > 25 µM (inactive)
- GI50 [2]: > 25 µM (inactive)
- GI50 [3]: > 25 µM (inactive)
- GI50 [5]: > 25 µM (inactive)
- GI50 [6]: > 25 µM (inactive)
- GI50 [19]: > 25 µM (inactive)
- GI50 [7]: > 25 µM (inactive)
- GI50 [8]: > 25 µM (inactive)
- GI50 [9]: > 25 µM (inactive)
- GI50 [10]: > 25 µM (inactive)
- GI50 [11]: > 25 µM (inactive)
- GI50 [13]: > 25 µM
- GI50 [14]: > 25 µM (inactive)
- GI50 [16]: > 25 µM (inactive)
- GI50 [17]: > 25 µM (inactive)
- GI50 [18]: > 25 µM (inactive)

SMILES: CS(=O)(=O)c1ccc(-c2cc(-c3ccc(S(C)(=O)=O)cc3)[n+](-c3cc(-c4ccccc4)c([O-])c(-c4ccccc4)c3)c(-c3ccc(S(C)(=O)=O)cc3)c2)cc1
- GI50 [1]: > 100 µM (inactive)
- GI50 [2]: > 100 µM (inactive)
- GI50 [3]: > 100 µM (inactive)
- GI50 [4]: > 100 µM (inactive)
- GI50 [5]: > 100 µM (inactive)
- GI50 [19]: 44.7 µM (inactive)
- GI50 [7]: > 100 µM (inactive)
- GI50 [8]: > 100 µM (inactive)
- GI50 [9]: > 100 µM (inactive)
- GI50 [10]: > 100 µM (inactive)
- GI50 [12]: > 100 µM (inactive)
- GI50 [13]: > 100 µM
- GI50 [14]: > 100 µM (inactive)
- GI50 [15]: > 100 µM (inactive)
- GI50 [17]: > 100 µM (inactive)
- GI50 [18]: > 100 µM (inactive)
